Experimental data published in patent US7316900B2, “Methylated nucleotide regulation of gene expression” (Quebepharma Recherche, Inc., priority 2000, dated 2008).

System: uPA mRNA
Experiment: Northern blot of uPA mRNA in MCF-7 cells treated with demethylating agent (Example 6)
Format: cell-based, human
Conditions: 25 uM, ten days, vs vehicle alone
Procedure: Human breast cancer cells MCF-7 were maintained in culture and at 65% confluent cells were treated with vehicle alone (MCF-7) or 25 uM of the demethylating agent 5 azc (MCF-7+5azc) for ten days. MDA-231 cells were used as positive control (MDA-231) for uPA expression. At the end of this period 20 μg of cellular RNA from each group were electophoresed on a 1.1% agarose/formaldehyde gel and […] a ^32p labeled 18 S RNA probe. All blots (FIG. 1A) were quantified by densitometric scanning (FIG. 1B). Significant difference from control cells is represented by an asterisk (p<0.05).

## Nc1ncn([C@@H]2O[C@H](CO)[C@@H](O)[C@H]2O)c(=O)n1 [5-azc]
  uPA mRNA (Northern blot, densitometric scanning): marked induction
